The results in this text go back to ChEMBL document CHEMBL2429804, “Examination of the phenolic profile and antioxidant activity of the leaves of the Australian native plant Smilax glyciphylla” (J Nat Prod, 2013).

Assay [1] is described as follows: Antioxidant activity assessed as trolox equivalent of DPPH scavenging activity after 4 mins by spectrophotometry. It counts as functional.
Assay [2] in a line: Antioxidant activity assessed as trolox equivalent of ferric ion reducing activity using fe3+-TPTZ after 4 mins by FRAP assay. It counts as functional.

As to `O=C(CCc1ccc(O)c(O)c1)c1c(O)cc(O)cc1O`, the Activity was 0.88 equiv in assay [1] and 0.64 equiv in assay [2].

With `Oc1cc(O)c2c(c1)OC(c1ccc(O)c(O)c1)C(O)C2` (stereo not given), the Activity came to 0.44 equiv in assay [1] and 0.56 equiv in assay [2].

In the case of `O=c1c(O[C@@H]2O[C@H](CO)[C@@H](O)[C@H](O)[C@H]2O)c(-c2ccc(O)c(O)c2)oc2cc(O)cc(O)c12`, the Activity in assay [1] and in assay [2] was 0.56 equiv each time.

Turning to `C[C@@H]1O[C@@H](Oc2cc(O)cc(O)c2C(=O)CCc2ccc(O)c(O)c2)[C@H](O)[C@H](O)[C@H]1O`, the Activity in assay [1] is 0.48 equiv; in assay [2], 0.72 equiv.

As to `O=c1c(O)c(-c2ccc(O)cc2)oc2cc(O)cc(O)c12`, the Activity in assay [1] worked out at 2.4 equiv; in assay [2] it was 2.36 equiv.
